# Laboratory results reported in patent US20200017495A1, “NOVEL HETEROCYCLIC COMPOUNDS AND THEIR USE IN PREVENTING OR TREATING BACTERIAL INFECTIONS” (priority 2017, published 2020).
# Test: Rat intraduodenal bioavailability determination
# Type: in vivo, Male Sprague-Dawley (SD) rats
# Conditions: 10 mg/kg, AF2 titrated in plasma
# Method: Method 3: Rat Intraduodenal Bioavailability Determination (Table 7) Intravenous (jugular) or intraduodenal catheterized Male Sprague-Dawley (SD) rats (250-270 g) were obtained from Janvier Labs (Le Genest-Saint-Isle, France). All rats were housed in a −temperature (20±2° C.) and −humidity (55%±10%) controlled room with 12h light/dark cycle, and were acclimatized for at least 4 days before experimentation. Water and food were available ad libitum throughout the study. All rats were handled in accordance with the institutional and national guidelines for the care and use of laboratory animals. Rats were allocated to two groups based on the administration route: intravenous or intraduodenal administration (n=3/group). In the intravenous administration study, drugs (10 mg/kg in phosphate buffer 10 mM, pH7.4) were administered under isoflurane anesthesia via the catheter placed in the jugular vein. […] The pharmacokinetic parameters were calculated using XLfit (IDBS) and Excel (Microsoft) software, using standard non-compartmental methods. The intraduodenal bioavailability was calculated by dividing the AUC obtained from the intraduodenal administration by the AUC obtained from the intravenous administration.
smiles,measurement,setting,value
O=C1N2CC(c3ncco3)=CC(C2)N1OC(F)(F)C(=O)[O-].[Li+] (centres unmarked) [AF2],AUC 0-∞,intravenous,10789 ng·h/mL
same,AUC(0-inf),"male, Sprague-Dawley, plasma, iv",11000 ng·h/mL
